Reference: US20180249714A1, “Liquid Termiticide Compositions of Pyrethroids and Neonicitinoids” (FMC Corporation, priority 2004, published 2018)

How the values were obtained:
Type in all cases: in vivo
[1] = tested on: termite (Reticulitermes flavipes) workers; test: Test to Determine Termite Mortality by Applications of Combinations of Bifenthrin and Imidacloprid (soil column in glass tube)
Protocol: (§1) The compositions of the present invention were tested for termiticide activity in the following manner:
Test compositions made up of TALSTAR® TERMITICIDE/INSECTICIDE and a wettable powder of imidacloprid in distilled water were prepared that provided appropriate rates of application of combinations of bifenthrin and imidacloprid, as well as bifenthrin and imidacloprid alone.
(§2) Glass tubing, 13 mm in diameter, was then cut into 20 cm sections in sufficient quantity to conduct the test. Each […] section of tubing was marked at 5 cm, 8 cm, and 18 cm distances from one end of the tube designated as the bottom. Each section of tubing was packed with a sandy soil (3% wt/wt moisture content) by first placing a section of a 1 cm diameter wooden dowel into the bottom of the glass tube up to the 8 cm marking, then introducing approximately 2 cm of soil into the other end of the tube designated as the top. The soil was then gently packed into the tube from the top using a second section of the 1 cm diameter wooden dowel. The process was repeated using 2 cm aliquots of soil until the soil level was adjacent to the 18 cm marking, thereby providing a column of soil 10 cm in height. An agar plug, which was formed in a section of the 13 mm diameter glass tubing of the type used to conduct these tests, was cut into 3 cm sections. A 3 cm section of agar was then gently pushed into the bottom of each tube containing the soil until the agar plug firmly touched the soil at the 8 cm marking, thereby creating a 5 cm void in the bottom of each section of tubing. Following placement of the agar plugs in each section of tubing; two sections of applicator sticks cut in 6 cm lengths were inserted into the bottom end of each tube thereby forcing about 1 cm of each stick into the agar plug to hold the agar plug in place. Plastic caps, with an inside diameter of 13 mm and holes drilled in their centers, were placed on the bottom ends of each of the sections of tubing. A sharpened applicator stick was then inserted into the hole in each plastic cap through the agar plug to the intersection of the agar plug and the soil. The applicator stick was then gently removed in a rotating manner to provide a means for a free flow of liquid through the soil. Each section of tubing was then stood upright, and 0.5 mL aliquots of each suspension of bifenthrin, imidacloprid or combinations thereof, as prepared above, were pipetted onto the top of the soil. Upon application of the test suspensions the top of each section of tubing was covered with a small piece of aluminum foil. The tubes were then allowed to stand for about 20 hours to allow movement of the termiticide(s) downward into the soil. After this time a plastic cap of 13 mm inside diameter was placed on the top of each section of tubing. The plastic caps with the holes drilled in their centers were removed from the bottom of each section of tubing, and a piece of 0.5 cm×4 cm filter paper was then placed between the two sections of applicator sticks. Fifty termite (Reticulitermes flavipes) workers were then inserted into the 5 cm void in the bottom of each section of tubing. New plastic caps without holes drilled in their centers were placed on the bottom of each section of tubing. The sections of tubing were then stored in an upright position, with the termites located below the soil. Termite mortality was measured at 1 hour, 2 hours, 1 day, 2 days and 7 days after treatment.

[2] = tested on: termite (Reticulitermes flavipes) workers; test: Test to Determine Termite Mortality by Applications of Combinations of Bifenthrin and Clothianadin (soil column in glass tube)
Protocol: as §1
Test compositions made up of TALSTAR® TERMITICIDE/INSECTICIDE and a wettable powder of clothianadin in distilled water were prepared that provided appropriate rates of application of combinations of bifenthrin and clothianadin, as well as bifenthrin and clothianadin alone.
as §2, with “clothianadin” for “imidacloprid”

[3] = tested on: termite (Reticulitermes flavipes) workers; test: Test to Determine Termite Mortality by Applications of Combinations of Bifenthrin and Thiamethoxam (soil column in glass tube)
Protocol: as §1
Test compositions made up of TALSTAR® TERMITICIDE/INSECTICIDE and a wettable powder of thiamethoxam in distilled water were prepared that provided appropriate rates of application of combinations of bifenthrin and thiamethoxam, as well as bifenthrin and thiamethoxam alone.
as §2, with “thiamethoxam” for “imidacloprid”

[4] = Rate of Appln. 10 PPM (0.001 % by weight)
[5] = Rate of Appln. 50 PPM (0.005 % by weight)

Cc1c(COC(=O)[C@@H]2[C@H](/C=C(\Cl)C(F)(F)F)C2(C)C)cccc1-c1ccccc1 (racemic) [A, bifenthrin]
Mortality Rate @ 1 Day [1, 4]: 13%
Mortality Rate @ 1 Hour [1, 4]: 0%
Mortality Rate @ 2 Days [1, 4]: 24%
Mortality Rate @ 2 Hours [1, 4]: 0%
Mortality Rate @ 7 Days [1, 4]: 95%
Mortality Rate @ 1 Day [1, 5]: 21%
Mortality Rate @ 1 Hour [1, 5]: 0%
Mortality Rate @ 2 Days [1, 5]: 78%
Mortality Rate @ 2 Hours [1, 5]: 0%
Mortality Rate @ 7 Days [1, 5]: 100%
Mortality Rate @ 1 Day [2, 4]: 13%
Mortality Rate @ 1 Hour [2, 4]: 0%
Mortality Rate @ 2 Days [2, 4]: 24%
Mortality Rate @ 2 Hours [2, 4]: 0%
Mortality Rate @ 7 Days [2, 4]: 95%
Mortality Rate @ 1 Day [2, 5]: 21%
Mortality Rate @ 1 Hour [2, 5]: 0%
Mortality Rate @ 2 Days [2, 5]: 78%
Mortality Rate @ 2 Hours [2, 5]: 0%
Mortality Rate @ 7 Days [2, 5]: 100%
Mortality Rate @ 1 Day [3, 4]: 3%
Mortality Rate @ 1 Hour [3, 4]: 0%
Mortality Rate @ 2 Days [3, 4]: 5%
Mortality Rate @ 2 Hours [3, 4]: 0%
Mortality Rate @ 7 Days [3, 4]: 100%
Mortality Rate @ 1 Day [3, 5]: 10%
Mortality Rate @ 1 Hour [3, 5]: 0%
Mortality Rate @ 2 Days [3, 5]: 65%
Mortality Rate @ 2 Hours [3, 5]: 0%
Mortality Rate @ 7 Days [3, 5]: 100%
